Literature values as cited in patent publication US6514490B2, “Compositions containing an antifungal and a cationic agent” (Janssen Pharmaceutica N.V., priority 1997, dated 2003).

Details: prior art medicated shampoo, anti-dandruff treatment

Row | SMILES | number of patients not responding to particular medicated shampoo
1 | CC(=O)N1CCN(c2ccc(OCC3COC(Cn4ccnc4)(c4ccc(Cl)cc4Cl)O3)cc2)CC1 (centres unmarked) [ketoconazole] | up to 30%
2 | S=[Se]=S [selenium sulfide] | up to 40%
